According to patent US20260256771A1, “GALUNISERTIB FOR USE IN THE TREATMENT OF ANDROGENIC ALOPECIA” (SAÚDE VIÁVEL, S.A., priority 2022, published 2026):

Assays:
[1] = tested on: phosphorylated SMAD2 (p-SMAD2); assay: Western blot of phospho-SMAD2 in hair bulbs of HFOCs; type: cell-based, human; settings: HFOCs treated with DHT or DHT+galunisertib for 72 h
Method: For western blot, hair bulbs are dissected from HFOCs treated with DMSO, DHT and Galunisertib for 72 h. Upon rinse in PBS, hair bulbs are lysed in Laemmli buffer (without bromophenol blue) with Halt Protease Inhibitor Cocktail and Halt Phosphatase Inhibitor Cocktail, and lysates are sonicated. Lysates from 10 hair bulbs are used for each condition tested. Total extracts are then loaded in SDS-polyacrylamide gels and transferred onto nitrocellulose membranes for western blot analysis. Membranes are blocked during 1 h with TBS+5% BSA. Primary and secondary antibodies are diluted in TBS+2% BSA accordingly to Supplementary Table 1. Signal is detected using Clarity Western ECL Substrate reagent. A GS-800 calibrated densitometer with Quantity One 1-D Analysis Software 4.6 (Bio-Rad Laboratories) is used for quantitative analysis of protein levels.
In addition, only anagen hair follicles are used.
(§1) Hair growth percentages is normalized to day 0.

[2] = tested on: C57BL/6 depilated male mice; assay: Hair growth in depilated mice under topical treatment (photographs, trichoscopy); type: in vivo, mouse; settings: for hair growth in magnified photographs of depilated areas: day 9, vs vehicle control
Method: FIG. 7. Galunisertib induces hair growth in C57BL/6J mice. a) Mouse treatment scheme. 7-week-old C57BL/6J mice were depilated (day −2) and 2 days later (day 0) started being treated with vehicle (70% ethanol), galunisertib (10 μM and 100 μM) or 3% minoxidil for 21 non-continuous days. b) Photographs of C57BL/6J mice treated with vehicle (control), 10 μM and 100 μM galunisertib or 3% minoxidil at days 0, 5, 9 and 14. c) Magnified photographs of the depilation site of C57BL/6J mice treated with vehicle (Ctr), galunisertib (10 and 100 μM) or minoxidil at days 7 and 9. d) Trichoscopy images of depilated regions at days 8 and 10. N≥3 animals were used per timepoint per condition for image and skin collection; e) Mass spectrometry analysis of skin biopsies retrieved at day 14 from animals treated with 10 μM and 100 μM galunisertib. Values are mean±SD of n=3 animals per condition.
Mice are six-week-old male C57BL/6J mice purchased from the Charles River Laboratories. The animals are housed and allowed to adapt to the laboratory environment for one week before experiments start. Animals are maintained under a 12 h light/dark cycle and fed with regular rodent's chow and tap water ad libitum, at the i3S animal facility.
For depilation and treatments in order to synchronize hair growth cycle in mice, anagen is induced by depilation. Seven-week-old male C57BL/6J mice are anesthetized using 3% isoflurane and their back is shaved using a hair shaver. Hair is then further depilated using cold wax bands (Veet Minima). After the depilation, the excess of wax is removed with mineral oil, and a skin protector spray, Douxo Calm Sérum, is applied, followed by Cavilon, a barrier film spray. To allow for skin to fully recover, topical treatments started two days later. During the procedures mice are under volatile anesthesia (3% isoflurane) and are kept warmed. Mice are photographed with a camara or a trichoscope (Dino-Lite), before topical application of galunisertib (10 μM and 100 μM), minoxidil (3%) or vehicle (70% ethanol). Topical applications are performed using a syringe in order to cover the depilated area only. Hair growth is followed for 21 days, although telogen is apparent at day 18 post-treatment.

TGFβ2 protein = assay: Immunohistochemistry of cryo-sectioned HFOCs: TGFβ2; type: cell-based, human
Description: as §1
FIG. 4. Galunisertib inhibits TGFβ2 paracrine signaling in the bulb epithelial compartment. a) Representative Immunohistochemistry (IHC) images of tissue sections of HFOCs untreated and treated with Galunisertib as indicated and stained for TGFβ2 and p-SMAD2. In the upper left frame is exemplified how the dermal papilla (DP) and adjacent bulb epithelial compartment (HB) regions were delineated for quantitative analyses shown in b-e. Nuclei were counterstained with DAPI. Scale bar, 100 μm. b-e) Adjusted intensity levels of TGFβ2 and p-SMAD2 per DP and HB areas as measured in tissue sections from untreated and Galunisertib-treated HFOCs. Values are mean±SD of HFOCs established from n=4 donors (n>9 HFs per condition). ns p≥0.05, *p≤0.05 by unpaired t-test.
(§2) For immunohistochemistry, 2-day HFOCs are used for immunohistochemistry analysis. Briefly, HFs were embedded on a drop of OCT and stored at −80° C. 8 μm cryosections are air-dried and fixed in 4% PFA (for TGFβ2, cleavage Caspase 3, p-SMAD2 and KI67 immunostainings) or cold acetone (for LEF1 and β-catenin immunostaining). Following 2×5 min rinse with PBS, microsections are permeabilized 2× for 10 min with PBS+0.3% Triton X 100 (PBS-T) and then blocked with PBS+10% fetal bovine serum (FBS) for 1 hour at room temperature. […]

[3] = Mass spectrometry of skin biopsies; type: in vivo, mouse; settings: skin retrieved at day 14, N=3, mean±SD
Method: For mass spectrometry of skin biopsies, dorsal skin of mice under 10 μM and 100 μM galunisertib topical treatment for 14 days is collected after anesthesia (Ketamine 150 mg/kg+Medetomidine 2 mg/kg) and perfusion with PBS. Skin samples are snap frozen and stored at −80° C. until being sent for mass spec analysis by Cyprotex. Skin samples from N=3 animals per condition are homogenized 1:4 in mouse plasma, then quantified against a mouse plasma calibration curve. Analytical runs meeting calibration standard and QC acceptance criteria.

[4] = tested on: Ki67 proliferation marker; assay: Immunohistochemistry of cryo-sectioned HFOCs: Ki67; type: cell-based, human; settings: HFOCs treated with Galunisertib for 48 h vs untreated
Description: as §1
FIG. 5. Galunisertib improves cell proliferation and the WNT signaling in the bulb epithelial compartment. a) Representative IHC images of tissue sections of HFOCs untreated and treated with Galunisertib and stained for KI67 and cleaved caspase 3. Nuclei were counterstained with DAPI. Scale bar, 100 μm. b,c) Adjusted intensity levels of KI67 and cleaved caspase 3 per DP and HB (bulb epithelium) areas, respectively, as measured in tissue sections from HFOCs with and without Galunisertib. All values are mean±SD of HFOCs established from n=8 donors (n>16 HFs per condition). ns p≥0.05, *p≤0.05 by unpaired t-test.
as §2, with “temperature. Antibodies are diluted in PBS-T+1% FBS and incubation done overnight at 4° C.” for “temperature.”

In the case of `Cc1cccc(-c2nn3c(c2-c2ccnc4ccc(C(N)=O)cc24)CCC3)n1` [Galunisertib], the “canonical TGFβ signaling activation (phospho-SMAD2 protein levels)” value [1] is reported as “blocks TGFβ activation”, the adverse side effects ([2]; mice under topical galunisertib (10 and 100 μM)) is reported as “no apparent adverse side effects” and the “hair growth in magnified photographs of depilated areas” value ([2]; topical 10 μM galunisertib) is reported as “marked improvement of hair growth”. For the same compound, the “hair growth in magnified photographs of depilated areas” value ([2]; topical 100 μM galunisertib, ranked after 10 μM galunisertib) was “marked improvement of hair growth”, the “hair density by trichoscopy examination of depilated regions” value ([2]; topical galunisertib, in particular 10 μM, days 8 and 10) was “increased hair density” and the “macroscopic assessment of hair growth: darkness of depilated area (hair density)” value ([2]; topical, galunisertib 10 and 100 μM, minoxidil 3%, vs. control mice, day 5 to day 14) was “consistently darker”. The “TGFβ2 fluorescence intensity levels at the bulb epithelial compartment” value (TGFβ2 protein; bulb epithelial compartment surrounding the DP, Galunisertib 48 h vs untreated) was “decreased levels”, the “DP levels of TGFβ2 (fluorescence intensity)” value (TGFβ2 protein; dermal papilla, HFOCs with or without Galunisertib for 48 h) was “isn't any significant change” and the “concentration of compound in skin biopsies” value ([3]; topical 10 μM galunisertib) was 1.6 ± 0.7 µM. For the same compound, the “concentration of compound in skin biopsies” value ([3]; topical 100 μM galunisertib) was 9.6 ± 0.6 µM, the “number of bulb epithelial cells staining positive for Ki67” value [4] was “increased number” and the “Ki67 fluorescence intensity levels” value ([4]; bulb epithelium) was “higher”.
